Key:
[1] = molecular target: T1, M-phase inducer phosphatase 1 (Homo sapiens, UniProt P30304); test: Inhibition of full-length recombinant human CDC25A using OMFP as substrate incubated for 5 to 8 mins by fluorescence based assay
T1 sequence (P30304 whole entry): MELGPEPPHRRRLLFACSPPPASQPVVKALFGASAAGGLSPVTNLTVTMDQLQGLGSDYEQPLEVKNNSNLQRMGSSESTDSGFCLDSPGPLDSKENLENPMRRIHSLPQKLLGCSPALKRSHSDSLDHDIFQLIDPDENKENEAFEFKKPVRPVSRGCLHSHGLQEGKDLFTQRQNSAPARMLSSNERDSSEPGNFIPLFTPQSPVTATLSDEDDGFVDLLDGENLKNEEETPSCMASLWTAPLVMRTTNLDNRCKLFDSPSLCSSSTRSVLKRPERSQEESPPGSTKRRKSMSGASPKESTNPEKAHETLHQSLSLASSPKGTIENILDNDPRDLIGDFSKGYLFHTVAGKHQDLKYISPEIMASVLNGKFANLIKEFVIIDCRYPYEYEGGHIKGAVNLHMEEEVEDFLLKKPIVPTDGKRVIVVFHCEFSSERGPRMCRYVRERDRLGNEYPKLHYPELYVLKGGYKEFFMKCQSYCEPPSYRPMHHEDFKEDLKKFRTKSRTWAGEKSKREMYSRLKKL

[2] = molecular target: T2, M-phase inducer phosphatase 2 (Homo sapiens, UniProt P30305); test: Inhibition of full-length recombinant human CDC25B using OMFP as substrate incubated for 5 to 8 mins by fluorescence based assay
T2 sequence (P30305 whole entry): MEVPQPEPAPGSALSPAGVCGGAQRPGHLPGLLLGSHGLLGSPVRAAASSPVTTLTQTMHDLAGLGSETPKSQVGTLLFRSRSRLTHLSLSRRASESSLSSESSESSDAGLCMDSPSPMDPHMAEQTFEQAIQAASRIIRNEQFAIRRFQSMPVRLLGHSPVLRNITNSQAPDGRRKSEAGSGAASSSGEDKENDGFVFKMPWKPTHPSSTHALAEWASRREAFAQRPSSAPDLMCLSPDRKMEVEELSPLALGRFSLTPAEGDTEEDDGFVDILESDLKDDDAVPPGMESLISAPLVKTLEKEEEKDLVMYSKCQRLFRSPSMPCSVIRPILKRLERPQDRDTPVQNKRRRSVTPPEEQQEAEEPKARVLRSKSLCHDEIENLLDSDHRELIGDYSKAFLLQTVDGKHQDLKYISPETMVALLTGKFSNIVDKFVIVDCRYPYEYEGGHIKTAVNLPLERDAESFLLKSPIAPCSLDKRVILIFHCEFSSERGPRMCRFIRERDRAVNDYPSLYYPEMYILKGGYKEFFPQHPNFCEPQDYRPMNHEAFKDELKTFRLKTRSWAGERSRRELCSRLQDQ

[3] = molecular target: T3, M-phase inducer phosphatase 3 (Homo sapiens, UniProt P30307); test: Inhibition of full-length recombinant human CDC25C using OMFP as substrate incubated for 5 to 8 mins by fluorescence based assay
T3 sequence (P30307 whole entry): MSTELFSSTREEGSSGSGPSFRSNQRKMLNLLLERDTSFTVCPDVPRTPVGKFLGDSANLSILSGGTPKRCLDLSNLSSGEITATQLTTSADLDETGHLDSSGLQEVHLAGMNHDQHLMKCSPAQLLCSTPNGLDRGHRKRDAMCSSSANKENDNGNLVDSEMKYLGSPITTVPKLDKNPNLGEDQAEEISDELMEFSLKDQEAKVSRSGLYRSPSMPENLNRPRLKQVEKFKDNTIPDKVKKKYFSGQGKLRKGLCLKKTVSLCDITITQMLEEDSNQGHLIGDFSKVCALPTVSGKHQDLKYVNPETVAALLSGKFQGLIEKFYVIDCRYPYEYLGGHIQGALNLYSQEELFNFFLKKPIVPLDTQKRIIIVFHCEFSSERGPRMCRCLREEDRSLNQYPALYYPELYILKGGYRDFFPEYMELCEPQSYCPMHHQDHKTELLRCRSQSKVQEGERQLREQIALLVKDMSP

IC50 [1]: 150 nM
IC50 [2]: 190 nM
IC50 [3]: 60 nM
SMILES: CC(NC1=C(Cl)C(=O)c2cccnc2C1=O)c1cn(-c2ccc(CO)cc2)nn1 (stereo not drawn)

— ChEMBL document CHEMBL5360572, “Advances of bioorthogonal coupling reactions in drug development” (Eur J Med Chem, 2023)
